Source: patent EP1991561B1, “BRANCHED MULTIMERIC PEPTIDES FOR TUMOR DIAGNOSIS AND THERAPY” (Universita' Degli Studi di Siena, priority 2006, dated 2007)
Where two headings read alike, the source gives them in different places.

Key:
[1] = test system: HT29 cells; conditions: 1 h at 4°C, washed, then 37°C
[2] = test system: HT29 cells; experiment: Confocal laser microscopy receptor binding assay on HT29 cells; format: cell-based, human; conditions: 5 µg/ml in PBS - 1% BSA, 1 hour at 4°C
Experimental: (§1) Confocal laser microscopy was used to carry out receptor binding assays. […] After fixing with 4% formalin, the plasma membrane was stained by incubation with concanavalin A-biotin (10 µg/mL in PBS - 1% BSA, Molecular Probes, Cat. No. C21420) at 4°C for 15 min and avidin-FITC (0.5 µg/ml in PBS - 1% BSA, Sigma, Cat. No S3762).

[3] = test system: HaCat cells; conditions: 5 µg/ml, 1h at 4°C
Experimental: as §1

[4] = test system: HT29 cells; experiment: Lysosomal localization with lysotracker green in HT29 cells; conditions: 1 h at 4°C followed by 4 hours in DMEM at 37°C
[5] = test system: HT29 cells
Excerpt: Nonetheless, down-regulation of receptors and their depletion from the membrane may dramatically impair the efficiency of a peptide-based therapy.

[6] = test system: HT29 tumors; experiment: In vivo tumor growth retardation, HT29 tumors grafted in nude mice; parameters: species or system CD-1 nude mice; conditions: i.v. on days 0, 5, 10 and 15, 4.05 µmol/kg
Excerpt: The invention will be now described by non limiting examples referring to the following figures: • FIGURE 1. […] NT4(8-13) peptide binding and cell internalization. […] Lysosome localization of NT4(8-13)-TMR. […] NT4(8-13) binding to colon and pancreas tumoral biopsies. Confocal microscopy images of (A) human sections of colon carcinoma, (B) healthy colon, (C) pancreatic carcinoma and (D) healthy pancreas. […] NTR regeneration. […] NT4(8-13)-Che6 cytotoxicity. […] The cells were then washed to remove unbound conjugate and irradiated (except for dark controls) with a total light dose of 3 J/cm^2. Drug phototoxicity was assessed by measuring cell survival, using the MTT assay 24 hours after irradiation. Negative controls (--) included HT29 cells incubated with the conjugate and not irradiated, cells irradiated and not incubated and untreated cells. • FIGURE 9. […] Inhibition of cell growth was tested by an MTT assay after 72 hours of incubation. • FIGURE 10. In vivo tumor growth retardation mediated by NT4(8-13)-MTX. […] Five days after the last injection, animals were sacrificed and tumors were removed and weighed.

[7] = test system: HT29 cells; experiment: Phototoxicity (photokilling) by MTT assay; format: cell-based, human; conditions: 4 hours at 37°C in the dark, 100 µM to 0.1 µM, irradiated 3 J/cm^2
Experimental: In order to assess the phototoxicity of NT4(8-13)-Che6 conjugate, photokilling experiments were carried out on HT29 cells. HT29 cells (2 x 10^4/well) were plated in 96-well microplates. After growing for 2 days, the cells were incubated at 37°C in the dark with different concentrations of NT4-Che6 (from 100 µM to 0.1 µM in RPMI with 10% FCS) for 4 hours. The cells were then washed to remove unbound conjugate and irradiated (except dark controls) with a Zeiss KL1500 tungsten halogen lamp (Zeiss, Jena, Germany) equipped with a 600-800 nm band pass filter (Corion, Franklin, MA) and with two optical fibers placed 1 cm from the well. The plate was placed back in the incubator overnight and the phototoxicity of the conjugate was monitored in a MTT assay. Similar experiments were performed with scramble NT4(8-13)-Che6 [(LRIPRY)4-Che6] and with free Che6. Further controls included HT29 cells incubated with the conjugate and not irradiated, cells irradiated and not incubated and untreated cells.

[8] = molecular target: T1, NT receptors (NTR) (Homo sapiens, UniProt P30989); experiment: Inhibition of 125I-NT binding to HT29 cell membranes; conditions: displacement of 125I-NT, HT29 human adenocarcinoma cell membranes
T1 construct: HT29 human adenocarcinoma cell membranes, that over-express NTR; endogenous in cells; host or cells: HT29 human colon adenocarcinoma cell membranes
T1 sequence (P30989 whole entry): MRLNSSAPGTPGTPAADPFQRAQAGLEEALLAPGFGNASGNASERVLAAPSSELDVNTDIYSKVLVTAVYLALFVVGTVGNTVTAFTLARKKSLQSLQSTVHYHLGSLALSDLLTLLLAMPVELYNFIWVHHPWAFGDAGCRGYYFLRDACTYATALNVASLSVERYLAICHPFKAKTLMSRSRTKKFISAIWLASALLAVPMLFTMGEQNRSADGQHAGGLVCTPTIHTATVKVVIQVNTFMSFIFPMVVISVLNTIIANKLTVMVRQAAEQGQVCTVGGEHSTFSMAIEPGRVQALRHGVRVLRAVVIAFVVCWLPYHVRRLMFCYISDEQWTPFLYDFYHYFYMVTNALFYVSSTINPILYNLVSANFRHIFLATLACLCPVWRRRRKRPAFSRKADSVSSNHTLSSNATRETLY
Excerpt: A tetrameric peptide carrying scrambled NT aminoacids (LRIPRY), scramble NT4(8-13), was used as control and allowed to verify sequence specificity.

[9] = test system: healthy and tumoral pancreatic tissues; conditions: 0.5 µg/ml, avidin-FITC
Experimental: (§2) Tumoral and healthy colon and pancreatic tissues were collected from oncological patients undergoing tumor resection. Frozen tissue tek® (Sakura Finetechnical, Tokyo, Japan) embedded tissues were sliced 15 µm thick in a cryostat (Reichert- Jung 2800 frigocut N) and placed on glass slides. Serial sections of the same biopsy were analysed both by hematoxylin/eosin (H&E) light microscopy and by fluorescent confocal microscopy. For immunofluorescent analysis the sections were fixed by immersion in 3% paraformaldehyde in PBS for 15' at room temperature., washed once and stored over night at 4°C with 0.1 M glycine in PBS. After saturation with fetal calf serum, the slices were incubated for 30' at 37°C with NT4(8-13)-Bio (0.5 µg/ml in PBS-BSA 3%) or with the uncorrelated branched peptide (DDHSAV, SEQ ID No. 4)4-Bio (0.5 µg/ml in PBS-BSA 3%), washed twice with PBS and incubated with avidin-FITC (0.5 µg/ml in PBS-BSA 3%) for 15' at room temperature. After washing, the sections were mounted with Mowiol® (Calbiochem, Cat. No. 475904) and sealed with nail polish. Negative controls were carried out incubating the slices (both tumoral and normal tissues) with avidin-FITC without previous incubation with NT4(8-13)-Bio. The fluorescine signal was observed by confocal laser microscopy (BIO-Rad MRC600) with a 488 nm excitation light.

[10] = test system: human colon tumors; experiment: Fluorescent detection of NT receptors in colon biopsy sections; format: binding; conditions: 0.5 µg/ml, avidin-FITC
Experimental: as §2

[11] = test system: HT29 cells; experiment: In vitro cytostatic activity by MTT assay, HT29; format: cell-based, human
Experimental: HT29 cells were plated in 0.2 ml aliquots at a density of 5 x 10^3 in a 96-well microplate. Different concentrations of NT4-MTX were added 24 hours after plating. Growth inhibition was assessed by MTT assay 6 days later. The same experiments were carried out with the scramble analog of the conjugate and with free MTX.
The same experiments were performed with the scramble analogue [(LRIPRY)4-MTX] and with unconjugated MTX. SW620 (NTR-expressing human colon carcinoma cell line, Istituto Zooprofilattico Sperimentale, Brescia, Italy) and on HCT116 (NTR-expressing human colon carcinoma cell line, Istituto Zooprofilattico Sperimentale, Brescia, Italy cell lines) were also tested with the same procedure.

[12] = test system: HT29 tumors
Experimental: Female CD-1 nude mice (Charles River Laboratories Inc., Wilmington, MA) 6-7 weeks of age (mean weight of 25 g), were injected subcutaneously in the right flank with of 2 x 10^6 HT29 cells.
Tumor volumes were measured daily with a caliper using the following formula: Volume = length x width^2 x Π/6. The tumor volumes for each group were pooled to plot mean tumor growth curves. At the end of the experiment, the mice were sacrificed. Tumors were removed and weighed and the weights compared between treated and control mice.

tetrameric NT(8-13)4-PEG-Tetramethyl rhodamine [NT4(8-13)-TMR]
peptide fluorescence localization ([1]; 4 hours): completely internalised | peptide fluorescence localization ([1]; 18 hours): complete degradation of the peptide conjugate | peptide fluorescence localization ([1]; time 0): localized exclusively on the plasma membrane | peptide fluorescence localization ([1]; two hours): present on the plasma membrane and in the cytoplasm | red fluorescent signal on the plasma membrane [2]: binding of the peptide to membrane receptors | rhodamine signal [3]: no rhodamine signal | lysosomal localization [4]: colocalization of NT4(8-13)-TMR with lysotracker green was observed | saturation of membrane receptors ([5]; 100 µg/ml in PBS - 1% BSA, 1 h at 4°C): saturated

CN(Cc1cnc2nc(N)nc(N)c2n1)c1ccc(C(=O)N[C@@H](CCC(=O)O)C(=O)O)cc1 [MTX, Methotrexate]
tumor growth ([6]; compared to control mice): slight decrease in tumor growth | Tumor weight, measured at the end of the experiment ([6]; five days after the last injection, Fig. 10): almost the same

tetrabranched NT(8-13)4-PEG-Chlorine e6 [NT4(8-13)-Che6]
phototoxicity (cell survival, MTT) [7]: maintained its cytotoxicity | IC50 [8]: 2.2 µM

Tetrameric NT(8-13)4-PEG-Biotin [NT4(8-13)-Bio]
green signal (avidin FITC) after receptor saturation ([5]; 0.5 µg/ml, directly after saturation with NT4(8-13)-TMR): did not produce any detectable green signal | receptor availability for ligand binding after regeneration ([5]; after saturation with NT4(8-13)-TMR, washing and 37°C in culture medium overnight): the receptor was again available for ligand binding | IC50 [8]: 0.0001 µM | binding to tumoral versus healthy tissue [9]: Analogous results | fluorescent staining of tumoral biopsies ([10]; colon tumoral biopsies (ten), 30' at 37°C): All colon tumoral specimens were positively stained | fluorescent staining of healthy tissue ([10]; corresponding normal colon tissue from the same patient): only one of the healthy tissues showed a low fluorescent signal

tetrabranched NT(8-13)-PEG-Methotrexate [NT4(8-13)-MTX]
cytostatic activity (inhibition of cell growth, MTT) [11]: active | mice death ([12]; 4.05 µmol/kg iv on days 0, 5, 10 and 15): no mice death was observed | Tumor weight ([12]; at the end of the experiment, 4.05 µmol/kg iv x4): significantly reduced | tumor growth ([12]; iv on days 0, 5, 10 and 15, 4.05 µmol/kg, compared to control mice): prevented tumor growth | volume of tumors relative to mice injected with PBS ([12]; iv on days 0, 5, 10 and 15, 4.05 µmol/kg, over the whole treatment): about one third | IC50 [8]: 0.5 µM
